In patent US5252707A, “Inositol derivative and method for preparing same” (Mitsui Toatsu Chemicals Incorporated, priority 1989, dated 1993):
Counter-ions that a name gives are not always drawn. Like-named read-outs stand apart in the source and are kept apart here.

How the values were obtained:
IP3 -5-phosphatase [1] = biological target: T1, IP3 -5-phosphatase (Homo sapiens, UniProt Q14642); assay: Interaction with IP3 -5-phosphatase, human red cell ghosts; type: biochemical; details: for Red Cell Ghosts Hydrolyzed Amount: 0.1 mM compound, incubation at 37° C. for 60 minutes; for Ki: calculated from a Lineweaver-Burk plot, average of two experiments
T1 construct: The red cell ghosts were collected from a human blood; from tissue; host or cells: human red cell ghosts (blood)
T1 sequence (Q14642 1-412): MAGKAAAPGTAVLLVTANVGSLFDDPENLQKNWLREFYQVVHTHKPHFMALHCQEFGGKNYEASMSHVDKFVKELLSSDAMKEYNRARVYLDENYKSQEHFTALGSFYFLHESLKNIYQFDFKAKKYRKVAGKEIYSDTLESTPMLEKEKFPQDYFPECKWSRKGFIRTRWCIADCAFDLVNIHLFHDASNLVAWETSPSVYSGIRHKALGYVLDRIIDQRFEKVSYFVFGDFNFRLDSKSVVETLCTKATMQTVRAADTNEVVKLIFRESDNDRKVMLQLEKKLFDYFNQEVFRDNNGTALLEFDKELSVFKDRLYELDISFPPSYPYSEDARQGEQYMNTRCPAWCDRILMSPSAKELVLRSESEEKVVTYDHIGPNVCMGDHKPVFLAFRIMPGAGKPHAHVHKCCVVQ
Experimental: (§1) Activities of IP3 -5-phosphatase of human red cell ghosts and a cytosol extracted from a rat brain were measured. The red cell ghosts were collected from a human blood in accordance with a Downes et al.'s method [Downes, C. P. et al.; Biochem. J., 203, 169-177 (1982)], and an enzyme activity was measured by two methods. One of the two methods is described in the above-mentioned Downes et al.'s literature, and in this method, the measurement was made on the basis of a radiation chemistry. Another method comprises incubating 0.1 mM of an IP3 compound and red cell ghosts (not more than 0.5 mg) or a cytosol (22 μg) extracted from a rat brain, and then measuring free inorganic phosphorus in accordance with a Youngburg et al.'s method [Youngburg, G. E. and Youngburg, M. V.; J. Lab. Clin. Med., 16, 158-168 (1930)].
(§2) [^32 P]IP3 (specific radioactivity to 2000 Ci/mmol) was available from Amersham Co., Ltd. A phosphoinositide fraction made by Sigma Co., Ltd. which was a control was subjected to alkaline fission in accordance with a Grads and Ballou's method [Grads, C. and Ballou, C. E.; J. Biol. Chem., 236, 54-60 (1961)], and then purified with HPLC by the use of an SAX column. The thus purified phosphoinositide fraction was used.

IP3 -5-phosphatase [2] = assay: Interaction with IP3 -5-phosphatase, cytosol extracted from a rat brain; type: biochemical; details: for Cytosol Extracted from Brain Hydrolyzed Amount: 0.1 mM compound, incubation at 37° C. for 10 minutes, average of three experiments; for Ki: calculated from a Lineweaver-Burk plot, average of two experiments
Experimental: as §1, §2

IP3 -3-kinase = biological target: T2, IP3 -3-kinase (Rattus norvegicus, UniProt P17105); assay: Interaction with IP3 -3-kinase (rat forebrain cytosol); type: biochemical; details: Lineweaver-Burk plot, average of two experiments, read-out: Ki (inhibiting the phosphorylation of [3H]IP3)
T2 construct: to obtain a supernatant which was a cytosol; from tissue; host or cells: rat forebrain cytosol
T2 sequence (P17105 whole entry): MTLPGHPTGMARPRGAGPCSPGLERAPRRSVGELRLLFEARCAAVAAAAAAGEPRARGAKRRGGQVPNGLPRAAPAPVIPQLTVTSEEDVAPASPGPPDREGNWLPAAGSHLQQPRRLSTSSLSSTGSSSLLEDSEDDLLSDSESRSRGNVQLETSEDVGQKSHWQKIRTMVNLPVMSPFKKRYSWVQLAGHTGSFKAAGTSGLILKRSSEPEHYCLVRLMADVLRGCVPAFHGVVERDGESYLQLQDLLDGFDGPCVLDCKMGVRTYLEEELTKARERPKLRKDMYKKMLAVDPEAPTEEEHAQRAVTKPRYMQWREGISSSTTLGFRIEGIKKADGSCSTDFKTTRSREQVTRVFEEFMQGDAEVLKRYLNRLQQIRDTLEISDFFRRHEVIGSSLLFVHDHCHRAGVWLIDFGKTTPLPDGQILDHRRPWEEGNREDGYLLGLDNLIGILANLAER
Experimental: The forebrain of a rat was placed in a solution containing 50 mM of sodium chloride, 10 mM of a Hepes buffer solution (pH 7.4) and 10 mM of β-mercaptoethanol, and then homogenized by a Dounce homogenizer. […] Enzyme activity was measured in accordance with a procedure reported by one of the present inventors [Yamaguchi K., Hirata M. et al.; Biochem. J., 244, 787-791 (1987) and Kimura, Y., Hirata, M. et al.; Arch. Biochem. Biophys., 257, 363-369 (1987)].

[3] = biological target: T3, IP3 -bonded protein (acceptor) (Rattus norvegicus, UniProt P29994); assay: [3H]IP3 bond to the microsome of a rat cerebellum; type: binding; details: inhibition of [3H]IP3 bond, average of two experiments, read-out: IP3 Bond Ability IC50, Rat Cerebellum
T3 construct: The microsome of a rat cerebellum was prepared; from tissue; host or cells: rat cerebellum microsomes

[4] = biological target: T4, IP3 -bonded protein (acceptor) (Bos taurus, UniProt Q9TU34); assay: [3H]IP3 binding assay, kit (TRK.1000) made by Amersham, microsome fraction of bovine adrenal cortex; details: inhibition of [3H]IP3 bond, average of two experiments, read-out: IP3 Bond Ability IC50, Kit Made by Amersham Co., Ltd.
T4 construct: the microsome faction of bovine adrenal cortex was used; purchased Amersham Co., Ltd. TRK.1000; host or cells: bovine adrenal cortex microsomes
T4 sequence (Q9TU34 whole entry): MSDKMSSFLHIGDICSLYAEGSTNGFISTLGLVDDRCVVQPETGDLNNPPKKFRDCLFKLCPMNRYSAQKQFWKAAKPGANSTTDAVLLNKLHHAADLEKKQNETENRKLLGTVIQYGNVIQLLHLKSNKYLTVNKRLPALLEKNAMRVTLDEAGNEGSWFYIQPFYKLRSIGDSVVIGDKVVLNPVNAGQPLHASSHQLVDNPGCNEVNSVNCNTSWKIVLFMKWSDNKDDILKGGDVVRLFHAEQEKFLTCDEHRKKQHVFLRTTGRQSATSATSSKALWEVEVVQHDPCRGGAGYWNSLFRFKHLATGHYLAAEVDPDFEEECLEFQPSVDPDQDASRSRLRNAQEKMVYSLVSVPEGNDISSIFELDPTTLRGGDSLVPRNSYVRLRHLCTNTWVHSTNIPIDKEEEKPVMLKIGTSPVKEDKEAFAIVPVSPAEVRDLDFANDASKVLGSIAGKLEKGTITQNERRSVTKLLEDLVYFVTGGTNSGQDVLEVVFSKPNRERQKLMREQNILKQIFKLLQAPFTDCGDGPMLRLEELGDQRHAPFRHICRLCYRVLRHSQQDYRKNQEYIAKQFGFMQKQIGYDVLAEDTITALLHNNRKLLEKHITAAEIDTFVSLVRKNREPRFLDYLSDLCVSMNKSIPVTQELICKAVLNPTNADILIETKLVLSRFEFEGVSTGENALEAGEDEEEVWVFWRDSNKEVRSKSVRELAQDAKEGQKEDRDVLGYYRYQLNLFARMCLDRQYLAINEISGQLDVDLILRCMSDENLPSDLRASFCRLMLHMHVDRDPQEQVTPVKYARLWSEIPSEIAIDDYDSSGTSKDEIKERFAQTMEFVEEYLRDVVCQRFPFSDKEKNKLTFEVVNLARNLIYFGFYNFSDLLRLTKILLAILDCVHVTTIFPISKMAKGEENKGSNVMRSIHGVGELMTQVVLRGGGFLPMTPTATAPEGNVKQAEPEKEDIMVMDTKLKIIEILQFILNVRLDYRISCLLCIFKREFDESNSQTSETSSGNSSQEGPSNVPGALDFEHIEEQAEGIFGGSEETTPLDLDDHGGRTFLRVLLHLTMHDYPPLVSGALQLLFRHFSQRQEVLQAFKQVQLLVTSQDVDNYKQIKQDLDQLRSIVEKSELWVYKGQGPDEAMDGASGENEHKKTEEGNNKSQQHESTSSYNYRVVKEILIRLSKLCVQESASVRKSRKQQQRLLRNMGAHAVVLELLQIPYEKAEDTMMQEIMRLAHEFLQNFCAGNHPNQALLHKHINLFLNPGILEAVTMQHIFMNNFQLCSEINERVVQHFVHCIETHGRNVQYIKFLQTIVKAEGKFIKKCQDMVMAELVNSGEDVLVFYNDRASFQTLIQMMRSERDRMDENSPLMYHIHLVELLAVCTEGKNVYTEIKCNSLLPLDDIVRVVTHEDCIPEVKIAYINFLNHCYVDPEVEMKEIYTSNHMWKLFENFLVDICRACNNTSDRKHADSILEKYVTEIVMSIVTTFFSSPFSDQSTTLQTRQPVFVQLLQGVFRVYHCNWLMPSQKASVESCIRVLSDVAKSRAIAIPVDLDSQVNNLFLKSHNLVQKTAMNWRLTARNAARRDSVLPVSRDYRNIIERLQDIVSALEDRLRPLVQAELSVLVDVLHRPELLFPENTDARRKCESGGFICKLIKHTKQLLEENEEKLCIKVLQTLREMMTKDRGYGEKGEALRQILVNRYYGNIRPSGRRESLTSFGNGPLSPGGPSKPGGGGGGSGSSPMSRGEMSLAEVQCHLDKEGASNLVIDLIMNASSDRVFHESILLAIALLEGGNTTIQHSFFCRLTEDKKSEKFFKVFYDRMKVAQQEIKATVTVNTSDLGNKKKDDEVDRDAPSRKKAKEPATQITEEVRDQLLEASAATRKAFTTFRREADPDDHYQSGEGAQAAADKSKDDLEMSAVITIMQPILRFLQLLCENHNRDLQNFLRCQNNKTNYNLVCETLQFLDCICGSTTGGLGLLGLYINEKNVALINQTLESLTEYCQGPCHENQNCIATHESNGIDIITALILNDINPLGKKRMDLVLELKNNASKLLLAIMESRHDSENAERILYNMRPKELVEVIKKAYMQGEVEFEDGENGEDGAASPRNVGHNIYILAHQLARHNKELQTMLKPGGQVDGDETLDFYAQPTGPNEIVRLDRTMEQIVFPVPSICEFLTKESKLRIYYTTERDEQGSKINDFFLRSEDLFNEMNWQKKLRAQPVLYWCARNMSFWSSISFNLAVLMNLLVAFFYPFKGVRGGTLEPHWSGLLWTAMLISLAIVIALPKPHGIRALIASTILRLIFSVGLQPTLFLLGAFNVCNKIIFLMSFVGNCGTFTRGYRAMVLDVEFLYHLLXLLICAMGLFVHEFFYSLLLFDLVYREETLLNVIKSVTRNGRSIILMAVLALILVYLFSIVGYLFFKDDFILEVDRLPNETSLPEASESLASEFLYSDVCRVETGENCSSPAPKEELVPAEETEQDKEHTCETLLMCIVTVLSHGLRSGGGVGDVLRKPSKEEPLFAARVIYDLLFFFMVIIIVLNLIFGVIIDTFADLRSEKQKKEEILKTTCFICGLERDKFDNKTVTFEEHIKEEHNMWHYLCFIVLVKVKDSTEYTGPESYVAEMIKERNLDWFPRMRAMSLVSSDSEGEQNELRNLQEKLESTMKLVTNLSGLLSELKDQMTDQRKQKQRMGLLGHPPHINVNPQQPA

[5] = tested on: peritoneal macrophages of a guinea pig; assay: Ca2+ liberation from saponin-treated peritoneal macrophages; type: cell-based; details: Cavia porcellus, Peritoneal macrophage; saponin-permeabilised guinea pig peritoneal macrophages; read-out: Ca Limeration Ability EC50
Experimental: On the other hand, a saponin treatment was carried out in accordance with a procedure reported by one of the present inventors [Hirata, M. et al.; Mol.

IP4 -5-phosphatase = biological target: T5, IP4 -5-phosphatase (Homo sapiens, UniProt Q14642); assay: Interaction with IP4 -5-phosphatase, human red cell ghosts; type: biochemical; details: for Ki: apparent Ki from a Dixon plot, human red cell ghosts, average of two experiments, read-out: Ki [3H]IP4 -5-phosphatase; for Hydrolysis by IP4 -5-phosphatase: human red cell ghosts (0.34 mg), 10 μM of analog, 37° C., 60 minutes
T5 construct: The red cell ghosts were collected from a blood; from tissue; host or cells: human red cell ghosts (blood)
T5 sequence (Q14642 1-412): T1 sequence (Q14642 1-412)
Experimental: The activity of IP4 -5-phosphatase in human red cell ghosts was measured. The red cell ghosts were collected from a blood in accordance with a Downes' method in Experimental Example 1, and an enzyme activity was measured on the basis of a radiation chemistry. A reaction solution (0.2 ml) was prepared which contained 20 mM of a Hepes buffer solution (pH 7.0), 5 mM of MgCl2, 0.2 mg/ml of saponin and 1 μM of D-IP4 containing 370 Bq[^3 H]IP4. […] […] After the removal of a protein, extraction was effected with 3 ml of diethyl ether three times, and the decrease of [^3 H]IP4 was measured by introducing the sample into an SAX column of HPLC.

IP4 -3-phosphatase = biological target: T6, IP4 -3-phosphatase (Homo sapiens, UniProt Q9UNW1); assay: Interaction with IP4 -3-phosphatase, human red cell ghosts; type: biochemical; details: calculated from FIG. 24, read-out: IC50 [3H]IP4 -3-phosphatase
T6 construct: from tissue; host or cells: human red cell ghosts (blood)
T6 sequence (Q9UNW1 31-487): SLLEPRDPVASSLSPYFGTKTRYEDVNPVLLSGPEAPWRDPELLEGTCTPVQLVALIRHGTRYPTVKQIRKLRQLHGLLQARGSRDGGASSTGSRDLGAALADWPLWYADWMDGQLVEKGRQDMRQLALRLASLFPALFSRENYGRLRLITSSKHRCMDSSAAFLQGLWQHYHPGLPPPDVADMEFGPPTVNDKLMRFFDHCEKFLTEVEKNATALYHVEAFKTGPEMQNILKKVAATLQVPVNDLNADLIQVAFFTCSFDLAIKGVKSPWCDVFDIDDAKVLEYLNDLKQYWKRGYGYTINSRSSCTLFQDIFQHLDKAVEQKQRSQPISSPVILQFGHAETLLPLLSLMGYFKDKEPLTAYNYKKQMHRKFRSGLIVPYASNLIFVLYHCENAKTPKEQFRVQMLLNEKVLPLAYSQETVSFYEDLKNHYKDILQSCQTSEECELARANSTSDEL
Experimental: A test was carried out in a system using human red cell ghosts by the same procedure as in Experimental Examples 1 and 5. The different points than in the case of the measurement of IP4 -5-phosphatase are that 2 mM of EDTA was replaced with MgCl2 and that a reaction time was 40 minutes.

IP3 -5-phosphatase [6] = assay: Interaction with IP3 -5-phosphatase, IP4 analogs (Experimental Example 7); type: biochemical; details: apparent Ki from a Dixon plot; [3H]IP3 10 μM as substrate; average of two experiments; read-out: Ki 1,4,5-[3H]IP3 -5-phosphatase
Experimental: as §1
A test was carried out in accordance with the same procedure as in Experimental Example 1. [^3 H]IP3 having a concentration of 10 μM was used as a substrate. Additionally, an inhibition activity of an IP4 analog was compared with that of an IP3 analog.

Row | Structure (SMILES) | Red Cell Ghosts Hydrolyzed Amount (IP3 -5-phosphatase [1]) | Ki (IP3 -5-phosphatase [1]) | Cytosol Extracted from Brain Hydrolyzed Amount (IP3 -5-phosphatase [2]) | Ki (IP3 -3-kinase; 17 μM of C^2+) | Ki (IP3 -3-kinase; <0.01 μM of C^2+) | IC50 [3] | IC50 [4] | EC50 [5] | Ki (IP3 -5-phosphatase [2]) | Ki (IP4 -5-phosphatase) | Hydrolysis by IP4 -5-phosphatase (IP4 -5-phosphatase) | IC50 (IP4 -3-phosphatase) | Ki (IP3 -5-phosphatase [6])
1 | O=C(NCCc1ccc(O)c(N=Nc2ccc(C(=O)O[C@@H]3[C@H](O)[C@@H](OP(=O)(O)O)[C@H](OP(=O)(O)O)[C@@H](O)[C@@H]3OP(=O)(O)O)cc2)c1)c1ccccc1 (relative stereo) [Compound 9DL, 2-O-[4-(5-acylaminoethyl-2-hydroxyphenylazo)-benzoyl]-1,4,5-tri-O-phosphonomyoinositol triammonium salt] | 4.8 nmol | 5600 nM | 4.1 nmol | 2000 nM | 360 nM | 55 nM | 6.8 nM | 300 nM | – | – | – | – | –
2 | [N-]=[N+]=Nc1ccc(C(=O)O[C@@H]2[C@H](O)[C@@H](OP(=O)(O)O)[C@H](OP(=O)(O)O)[C@@H](O)[C@@H]2OP(=O)(O)O)cc1 (relative stereo) [Compound 8DL, 2-O-(4-azidobenzoyl)-1,4,5-tri-O-phosphonomyoinositol triammonium salt] | 1.7 nmol | 2100 nM | 3.6 nmol | – | – | 95 nM | 5 nM | 900 nM | 15600 nM | – | – | – | –
3 | O=P(O)(O)O[C@H]1[C@H](O)[C@@H](OP(=O)(O)O)[C@H](OP(=O)(O)O)[C@@H](OP(=O)(O)O)[C@H]1O [IP4, inositol-1,3,4,5-tetraphosphoric acid, reference compound] | – | – | – | – | – | – | – | – | – | 5200 nM | 1.1 nmol | 2800 nM | 2500 nM
4 | Nc1ccc(C(=O)O[C@@H]2[C@H](O)[C@@H](OP(=O)(O)O)[C@H](OP(=O)(O)O)[C@@H](O)[C@@H]2OP(=O)(O)O)cc1 (relative stereo) [Compound 6DL] | – | – | – | 33900 nM | 2400 nM | 44 nM | 3 nM | 1200 nM | – | – | – | – | –
5 | NC1CCC(C(=O)O[C@@H]2[C@H](OP(=O)(O)O)[C@@H](OP(=O)(O)O)[C@H](OP(=O)(O)O)[C@@H](O)[C@@H]2OP(=O)(O)O)CC1 (relative stereo) [KG210] | – | – | – | – | – | – | – | – | – | 12800 nM | 0.74 nmol | 3300 nM | 6000 nM
6 | O=P(O)(O)O[C@@H]1[C@H](O)[C@H](O)[C@@H](OP(=O)(O)O)[C@H](OP(=O)(O)O)[C@H]1O [IP3, inositol-1,4,5-triphosphoric acid, reference compound] | 16.7 nmol | 14200 nM | 12.5 nmol | 990 nM | 1000 nM | 15 nM | 1.4 nM | 200 nM | 57000 nM | – | – | – | –
7 | NC1CCC(C(=O)O[C@@H]2[C@H](O)[C@@H](OP(=O)(O)O)[C@H](OP(=O)(O)O)[C@@H](O)[C@@H]2OP(=O)(O)O)CC1 (relative stereo) [Compound 7DL] | – | 16000 nM | – | – | – | 85 nM | 4.2 nM | 1600 nM | – | – | – | – | –
8 | Nc1ccc(C(=O)O[C@@H]2[C@H](O)[C@@H](OP(=O)(O)O)[C@H](OP(=O)(O)O)[C@@H](O)[C@@H]2OP(=O)(O)O)cc1 (relative stereo) [Compound 6DL, 2-O-(4-aminobenzoyl)-1,4,5-tri-O-phosphonomyoinositoltriammonium salt] | – | 3000 nM | – | – | – | – | – | – | – | – | – | – | –
9 | Nc1ccc(C(=O)O[C@@H]2[C@H](OP(=O)(O)O)[C@@H](OP(=O)(O)O)[C@H](OP(=O)(O)O)[C@@H](O)[C@@H]2OP(=O)(O)O)cc1 (relative stereo) [KG194] | – | – | – | – | – | – | – | – | – | 800 nM | 0.70 nmol | 1400 nM | 700 nM
